“Also recorded” adds a separate entry of the source.
Key:
Format in all cases: cell-based, human
HMLEshEcad cells [1] = assay: Co-culture of GFP-labeled HMLEshEcad cells and control HMLE cells (1:20), FACS for GFP positivity
Description: FIGS. 2A-2D depict that passage through the EMT leads to resistance to conventional chemotherapy drugs. FIG. 2A depicts dose response curves of transformed HMLERshCntrl (light gray line) and HMLERshEcad (dark gray line) cells treated with Paclitaxel and Doxorubicin. Dotted line denotes the 50% fraction surviving. […] FIG. 2B depicts the response of immortalized cells to chemotherapy drugs. HMLEshCntrl and HMLEshEcad cells were treated with the indicated drugs at three concentrations for 3 days and assayed for viability using the MTS assay. While Doxorubucin, Actinomycin D, Paclitaxel and Campthotecin are chemotherapeutic drugs, Staurosporine is a general kinase inhibitor that potently induce apoptosis. FIGS. 2C and 2D depict paclitaxel treatment leads to selective expansion of a minority cell population that has undergone an EMT. Control HMLE cells and GFP expressing HMLEshEcad cells were mixed at a ratio of 20:1 and seeded onto 6-well plates in triplicate. DMSO or Paclitaxel at 2.5 nm or 10 nm concentration was added onto the mixed cell populations 1 day after seeding followed by a 3 day incubation. The number of GFP-positive cells at the end of treatment were analyzed by flow cytometry. […] Note the increase in GFP positivity from 5% to 14% upon […] Paclitaxel treatment.
To further characterize the observed drug resistance, we paclitaxel-treated co-cultures of GFP-labeled HMLEshEcad cells and unlabeled controls cells (1:20 ratio).
This was observed independently of whether or not the cell lines had undergone neoplastic transformation. To determine the effect of conventional chemotherapy drugs on a mixture of epithelial cells that have and epithelial cells that have not undergone EMT, we co-mixed GFP-labeled HMLEsiEcad cells with unlabeled HMLEsiGFP cells at a ratio of 1:20, and treated the resulting co-culture with Paclitaxel. This non-stoichiometric mixture provided an internally controlled method to evaluate whether differential drug sensitivity was also manifest under conditions in which epithelial cells having undergone EMT were in the minority.
(§1) For the mix experiments, unlabelled and GFP-labeled cells were mixed at the indicated ratios and seeded onto 6-well plates. Triplicate wells were then treated with dmso or the compounds (paclitaxel, salinomycin, abamectin and blasticidin) for 48 hrs. The cells were washed with PBS, trypsinized and analyzed by FACS for GFP positivity.

HMLEshEcad cells [2] = assay: Dose-response viability of HMLEshCntrl vs HMLEshEcad cells (validation of hits, 384-well, Cell-Titer-Glo); settings: FIG. 4A; for selective toxicity towards HMLEshEcad cells relative to HMLEshCntrl cells: dose response on retesting
Description: (§2) FIG. 4A depicts dose response curves of HMLEshCntrl (A, light gray curve) and HMLEshEcad (A, dark gray curve) cells treated with the 8 compounds identified during the initial screen. 1000 cells of each line were seeded onto 384 well plates and treated with 8 different concentrations of compounds within a 2.5 log range. The cell viability after 3 day treatment was measured by Cell-Titer-Glo. […] FIG. 4B depicts dose response curves of HMLEshCntrl (curve with square data points) and HMLE-Twist (curve with triangular data points) cells treated with the same compounds as in (A). Note that selectivity of Salinomycin, Abamectin, Etoposide and Nigericin (Top, Left-to-Right) is retained even though a different method of EMT induction is used. […] 1 Day after seeding DMSO, Salinomycin (1.25 or 5 μM) or Abamectin (0.25 or 1.25 μM) was added at the indicated concentration. As the GFP vector contains a Blasticidin resistance gene, we used Blasticidin treatment as a positive control for the expansion of GFP-expressing control HMLE cells. After 3 day incubation the mix population of cells were analyzed by flow cytometry and the percentage of GFP-positive cells were determined. […] FIG. 4D depicts dose response curves of transformed HMLERshCntrl (light gray line) and HMLERshEcad (dark gray lines) cells treated with Salinomycin and Abamectin. Dotted line denotes the 50% fraction surviving.
We pursued 8 of the 32 compounds for further study and evaluated their effects across a range of doses.
For each of these compounds, we evaluated the effect on cell viability across a series of doses for sibling cell lines either induced into or not induced into EMT.
Information about the general automated HTS protocol is available online at broad.harvard.edu/chembio/index.html. The assay was initiated by plating 40 μL of medium containing 1000 cells/well into white 384-well opaque-bottom plates (Nunc, Rochester, N.Y.) using an automated plate filler (Bio-Tek μFiller; Winsooki, Vt.) and allowing the cells to adhere for 24 hours. 100 nL of compound stock solutions in dmso was transferred from stock plates into the 384-well assay plates using an automated pin-based compound transfer robot (CyBio CyBi-Well vario; Woburn, Mass.). For most compounds the final concentration in each well was calculated to be 10 uM.
The screen was performed in duplicate. For negative controls, entire dmso-treated control plates were employed, in addition to dmso-only control wells that were incorporated into each compound assay plate. The cells were assayed for luciferase activity with the addition 20 ul of CellTiter-Glo Luminescent Cell Viability Assay solution (Promega). The luminescent signal from each plate was detected using an automated plate reader (Perkin-Elmer Envision 1; Wellesley, Mass.).
Individual compounds were purchased from Sigma and dissolved in DMSO with the exception of nigericin which was dissolved in 100% ethanol. Activity of the compounds were quantified by generating dose-response curves for HMLE-shCntrl, HMLE-shEcad and HMLE-Twist under the same cell density and culture conditions described for the initial screen, using the 384-well plate based system.

HMLE-Twist cells = assay: Co-culture of GFP-expressing HMLE cells and unlabelled HMLE-Twist cells, FACS for GFP positivity; settings: FIG. 4C
Description: as §2
To examine the effects of salinomycin and abamectin treatment on heterogeneous populations of epithelial cells that have and epithelial cells that have not undergone EMT, we co-mixed GFP-labeled HMLE cells with unlabeled HMLE-Twist cells, treating the resulting co-cultures with compounds. As a positive control for this experiment we treated co-cultures with blasticidin, which selects for the differentiated HMLE-GFP cells, which harbor a blasticidin-resistance gene.
as §1

HMLER cells = assay: Growth rate of HMLER cultures after treatment; settings: FIG. 6B
Description: FIGS. 6A and 6B depict effects of salinomycin on the CSC population in HMLER cell line. (FIG. 6A) HMLER cells were treated with vehicle control (dmso), salinomycin or paclitaxel at the indicated concentrations for 15 days. FACS analysis were performed at the end of treatment to gauge the CD44+/CD24− CSC population (right panels). Note that salinomycin decreases the CD44+/CD24− population from a basal of 4.9% to 0.2%. Treated cultures were also subjected to the mammosphere formation assay (left panels). Number of mammopsheres formed per 1000 cells from each culture are indicated below the representative photographs of assay wells. (FIG. 6B) Growth rates of HMLER cultures after treatment with vehicle control (dmso), salinomycin or paclitaxel at the indicated concentrations in (A) for 15 days.
We then turned to the critical question of whether the compounds had the general ability to inhibit CSCs in breast cancer cell lines. […] We next compared the effects of salinomycin, control vehicle DMSO and paclitaxel on HMLER cells. […] The CD44+/CD24− fraction was thus 360-fold lower following treatment with salinomycin than with paclitaxel (FIG. 6A). Proliferation of the bulk population was not inhibited following treatment with salinomycin relative to either vehicle- or paclitaxel-treatment (FIG. 6B).

SMILES	increase in HMLEsiEcad cells having undergone EMT (HMLEshEcad cells [1]; 2.5 nM)	increase in HMLEsiEcad cells having undergone EMT relative to DMSO-treated co-cultures (HMLEshEcad cells [1]; 10 nM, after 3 days, 1:20 ratio)	increase in the proportion of HMLEshEcad cells compared to DMSO-treated co-cultures (HMLEshEcad cells [1]; 10 nM, treatment for 4 days, 1:20 ratio)	GFP positivity after treatment (from 5%) (HMLEshEcad cells [1]; 3 day incubation)	IC50 fold lower for HMLEshEcad cells vs HMLEshCntrl cells (HMLEshEcad cells [2]; 3 day treatment, 8 concentrations)	selective toxicity towards HMLEshEcad cells relative to HMLEshCntrl cells (HMLEshEcad cells [2])	selective toxicity towards HMLEshEcad cells relative to HMLEshCntrl cells (HMLEshEcad cells [2]; listed as Salinomycin)	GFP-positive fraction relative to DMSO-treated controls (HMLE-Twist cells; GFP-labeled HMLE + unlabeled HMLE-Twist)	proportion of HMLETwist cells in co-culture with control cells (HMLE-Twist cells; Salinomycin 1.25 or 5 μM, Abamectin 0.25 or 1.25 μM)	proliferation of the bulk population relative to vehicle- or paclitaxel-treatment (HMLER cells)
CC(=O)O[C@H]1C(=O)[C@@]2(C)[C@H]([C@H](OC(=O)c3ccccc3)[C@]3(O)C[C@H](OC(=O)[C@H](O)[C@@H](NC(=O)c4ccccc4)c4ccccc4)C(C)=C1C3(C)C)[C@]1(OC(C)=O)CO[C@@H]1C[C@@H]2O [paclitaxel]	more modest increase	4 fold	4 fold	14%	–	–	–	–	–	–
CC[C@@H](C(=O)[C@@H](C)[C@@H](O)[C@H](C)[C@@H]1O[C@@H]([C@@H](CC)C(=O)O)CC[C@@H]1C)[C@H]1O[C@]2(C=C[C@@H](O)[C@]3(CC[C@@](C)([C@H]4CC[C@](O)(CC)[C@H](C)O4)O3)O2)[C@H](C)C[C@@H]1C [salinomycin]	–	–	–	–	~10 fold	moderate to strong selectivity; also recorded: strong specificity	selective toxicity	increase	dose-dependent decrease; also recorded: selection against the GFP-negative HMLE-twist cells	not inhibited

Source: patent US20140294729A1, “METHODS FOR IDENTIFICATION AND USE OF AGENTS TARGETING CANCER STEM CELLS” (Whitehead Institute for Biomedical Research, priority 2008, published 2014)
